From patent publication US20080255084A1, “Combination of Organic Compounds” (priority 2005, published 2008)

Key:
mouse renin = assay: renin inhibitory potency against mouse renin; type: biochemical; conditions: compared with human renin
dog renin = target: T1, dog renin (Canis lupus familiaris, UniProt Q6DYE7); assay: renin inhibitory potency against dog renin; type: biochemical; conditions: compared with human renin
T1 sequence (Q6DYE7 66-403): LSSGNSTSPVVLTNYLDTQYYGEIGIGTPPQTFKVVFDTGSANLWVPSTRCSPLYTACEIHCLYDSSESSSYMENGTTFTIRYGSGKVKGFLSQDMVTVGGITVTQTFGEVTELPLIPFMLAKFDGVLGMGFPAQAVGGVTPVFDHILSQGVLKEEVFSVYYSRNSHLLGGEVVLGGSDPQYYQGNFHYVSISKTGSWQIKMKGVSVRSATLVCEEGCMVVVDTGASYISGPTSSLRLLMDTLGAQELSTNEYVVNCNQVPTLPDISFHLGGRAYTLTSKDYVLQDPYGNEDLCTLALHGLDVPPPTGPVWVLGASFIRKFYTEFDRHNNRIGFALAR

rat renin = target: T2, rat renin (Rattus norvegicus, UniProt P08424); assay: renin inhibitory potency against rat renin; type: biochemical; conditions: loss of potency against rat renin
T2 sequence (P08424 65-402): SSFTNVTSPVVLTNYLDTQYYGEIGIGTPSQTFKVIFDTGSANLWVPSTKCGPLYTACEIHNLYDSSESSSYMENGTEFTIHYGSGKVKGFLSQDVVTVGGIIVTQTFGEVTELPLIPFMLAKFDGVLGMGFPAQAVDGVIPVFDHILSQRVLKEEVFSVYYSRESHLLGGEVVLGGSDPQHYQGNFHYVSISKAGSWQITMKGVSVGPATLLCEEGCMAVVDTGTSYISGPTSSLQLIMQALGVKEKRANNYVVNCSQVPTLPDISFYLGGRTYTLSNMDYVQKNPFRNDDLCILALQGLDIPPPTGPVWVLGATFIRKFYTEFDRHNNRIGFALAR

[1] = in vivo; cited from earlier work

For `COCCCOc1cc(C[C@@H](C[C@H](N)[C@@H](O)C[C@H](C(=O)NCC(C)(C)C(N)=O)C(C)C)C(C)C)ccc1OC` [aliskiren, 2(S),4 (S),5(S),7(S)—N-(3-amino-2,2-dimethyl-3-oxopropyl)-2,7-di(1-methylethyl)-4-hydroxy-5-amino-8-[4-methoxy-3-(3-methoxy-propoxy)phenyl]-octanamide], the “potency against mouse renin” value (mouse renin) was “reasonable potency”, the “potency against dog renin” value (dog renin) was “reasonable potency” and the “weaker as a rat renin inhibitor” value (rat renin) was 1-2 orders of magnitude.

In the case of `CC1(C)O[C@@H]2[C@@H](CO[C@@]3(COS(N)(=O)=O)OC(C)(C)O[C@@H]23)O1` [Topiramate], the “effect on weight loss” value [1] is given as “increase weight loss”.

In the case of `NS(=O)(=O)Cc1noc2ccccc12` [Zonisamide], the “effect on weight loss” value [1] is given as “lead to weight loss”.
